# How the values were obtained:
# Experiment in all cases: selective drug sensitivity score (sDSS, relative to normal bone marrow) (sDSS (score)); higher = more potent and effective on the cell line relative to normal bone marrow cells
# Conditions in all cases: 72 h
# [1] = system: COG-LL-355h
# [2] = system: TMD5
# [3] = system: MOLT-14
# [4] = system: 697
# [5] = system: COG-LL-402h
# [6] = system: SUP-B15
# [7] = system: COG-LL-319h
# [8] = system: MN-60
# [9] = system: PEER
# [10] = system: NALM-6
# [11] = system: ALL-PO
# [12] = system: RPMI-8402
# [13] = system: NALM-16
# [14] = system: MOLT-4
# [15] = system: RCH-ACV
# [16] = system: JURKAT
# [17] = system: KASUMI-2
# [18] = system: KASUMI-9
# [19] = system: HPB-ALL
# [20] = system: MOLT-16
# 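Further: ALL cell lines in 384-well plates, five doses spanning 10,000-fold, each plate scaled between vehicle and 100 µmol/L benzalkonium chloride controls, sDSS an adapted area-under-curve metric.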
Compound,selective drug sensitivity score [1],selective drug sensitivity score [2],selective drug sensitivity score [3],selective drug sensitivity score [4],selective drug sensitivity score [5],selective drug sensitivity score [6],selective drug sensitivity score [7],selective drug sensitivity score [8],selective drug sensitivity score [9],selective drug sensitivity score [10],selective drug sensitivity score [11],selective drug sensitivity score [12],selective drug sensitivity score [13],selective drug sensitivity score [14],selective drug sensitivity score [15],selective drug sensitivity score [16],selective drug sensitivity score [17],selective drug sensitivity score [18],selective drug sensitivity score [19],selective drug sensitivity score [20]
O=c1[nH]cc(F)c(=O)[nH]1 [Fluorouracil] (top concentration 10000 nM),1.76,-0.64,5.76,3.46,3.36,3.46,6.56,-0.64,-0.64,1.86,8.56,2.66,-0.24,2.76,2.96,0.16,1.56,3.26,-0.24,6.36
NC(=S)N/N=C/c1ncccc1N [Triapine] (top concentration 10000 nM),1.08,2.28,2.08,5.88,9.28,2.48,10.6,1.48,2.08,4.48,2.28,2.38,2.68,1.98,7.38,2.28,2.38,3.98,1.58,4.68
N#CC(c1ccnc(OCc2ccc(CN3CCOCC3)cc2)n1)c1nc2ccccc2s1 (stereo not given) [Bentamapimod] (top concentration 10000 nM),1.84,0.74,2.74,5.14,1.54,2.34,-0.06,2.44,5.64,2.44,6.24,4.94,-0.46,1.74,4.44,3.94,-0.46,6.24,3.34,4.04
Nc1ncnc2c1c(COc1cccc(Cl)c1)nn2C1CCOCC1 (top concentration 10000 nM),2.06,-0.64,-0.64,0.26,1.56,0.16,3.96,2.96,-0.64,-0.54,0.66,0.46,-0.64,0.16,6.06,0.06,2.46,1.06,1.26,-0.64
O=C(O)CNC(=O)c1c(O)c2ccccc2n(Cc2ccccc2)c1=O [IOX-2] (top concentration 50000 nM),-0.82,-0.82,-0.82,2.28,-0.82,-0.82,4.18,-0.42,-0.82,-0.32,-0.22,-0.82,-0.62,-0.82,1.18,-0.82,3.38,-0.42,0.68,-0.82
CN(CC(=O)N(Cc1ccc(C2CCCCC2)cc1)c1ccc(C(=O)O)cc1)S(=O)(=O)c1c(F)c(F)c(F)c(F)c1F [SH-4-54] (top concentration 25000 nM),-0.54,-5.94,-4.34,-2.64,-2.14,-5.94,-3.04,-6.54,-4.54,-3.34,-6.04,-5.74,-5.04,-6.04,-2.24,-6.14,-2.84,-6.14,-6.84,-6.74
Cc1nc(C(=O)NCC(=O)O)c(O)c2ccc(Oc3ccccc3)cc12 [Roxadustat] (top concentration 10000 nM),-1.12,-1.12,-0.32,-0.92,-1.12,-1.12,2.28,-1.12,0.58,-1.12,-0.82,-0.82,-1.12,-1.12,-1.12,-0.42,-0.92,-0.82,5.28,0.88
N#Cc1ccnc(N2C(=O)CC[C@H]2C(=O)N(c2cncc(F)c2)[C@H](C(=O)NC2CC(F)(F)C2)c2ccccc2Cl)c1 [Ivosidenib] (top concentration 10000 nM),0,1.8,0.1,0.1,0,0,0,0,0.6,0,0,0.8,0,0.2,0,0.7,0.6,0.9,0,1
